Tested on: pig model of obstructive sleep apnea (OSA)
Assay: pig model of obstructive sleep apnea (OSA): upper airway collapsibility under negative pressure
Format: in vivo, German Landrace pigs
Conditions: anaesthetized pigs
Text: The therapeutic potential of the compounds of formula (I) according to the present invention in sleep apnea has been assessed preclinically in a pig model of obstructive sleep apnea (OSA).
Using negative pressure, it is possible to induce collapse and thus obstruction of the upper respiratory tract in anaesthetized, spontaneously breathing pigs (Wirth K. J. et al., Sleep 36(5) (2013) pp. 699-708).
German Landrace pigs are used for the model. The pigs are anaesthetized and tracheotomized. Two tracheal cannulas are inserted into the trachea, one into the rostral part and the other into the caudal part of the trachea. Using a connection piece, the rostral cannula is connected to a tube to the negative pressure device and to the distal tracheal cannula. The distal tracheal cannula is additionally connected to a tube with an open end to atmosphere via a connection piece that served for free tracheal breathing, circumventing the upper airway. By appropriate opening and clamping of those tubes breathing can be switched from nasal breathing to breathing through the caudal tracheal cannula, circumventing the upper airway, and the (isolated) upper airway can be connected to the negative pressure device, causing airflow in the inspiratory direction.
At certain points in time, the collapsibility of the upper respiratory tract is tested by having the pig breathe via the caudal cannula and applying negative pressures of −50, −100 and −150 cm water head (cm H2O) to the upper respiratory tract. This causes the upper respiratory tract to collapse, which manifests itself in an interruption of the airflow and a pressure drop in the tube system. This test is conducted prior to the administration of the test substance and at certain intervals after the administration of the test substance. An appropriately effective test substance can prevent this collapse of the respiratory tract in the inspiratory phase.

O=C(c1cnc(N2CC3(COC3)C2)nc1)N1CCC(N2CCc3ccccc3C2)CC1 [[4-(3,4-Dihydroisoquinolin-2(1H)-yl)piperidin-1-yl][2-(2-oxa-6-azaspiro[3.3]hept-6-yl)pyrimidin-5-yl]methanone]
inhibited upper airway collapsibility, duration (i.v. bolus 0.007 mg/kg followed by i.v. infusion 0.0025 mg/kg/h for four hours, negative pressure −50 cm water head): up to two hours
inhibited upper airway collapsibility, duration (i.v. bolus 0.007 mg/kg followed by i.v. infusion 0.0025 mg/kg/h for four hours, negative pressure −100 cm water head): up to 90 minutes
inhibited upper airway collapsibility, duration (i.v. bolus 0.07 mg/kg followed by i.v. infusion 0.025 mg/kg/h for four hours, negative pressure −50 cm water head): up to four hours
inhibited upper airway collapsibility, duration (i.v. bolus 0.07 mg/kg followed by i.v. infusion 0.025 mg/kg/h for four hours, negative pressure −100 cm water head): up to four hours
inhibited upper airway collapsibility, duration (i.v. bolus 0.07 mg/kg followed by i.v. infusion 0.025 mg/kg/h for four hours, negative pressure −150 cm water head): up to two hours
